Reference: patent US5919755A, “Medical use of heme products” (Leiras OY, priority 1995, dated 1999)
“And” between values parts separate entries of the source, which are not always exact repeats. Equal entries are not always repeated. Where two headings read alike, the source gives them in different places.

Key:
[1] = cited from earlier work
[2] = cited from earlier work; remark: listed apart in the source
[3] = humans, intravenous dose of 3 mg/kg; cited from earlier work
myelodysplastic syndrome [4] = conditions: cited from earlier work
plasma proteins = conditions: after infusion into the blood stream; cited from earlier work
myelodysplastic syndrome [5] = conditions: cited from earlier work; remark: listed apart in the source
[6] = system: myelodysplastic syndromes; conditions: part of MDS patients; cited from earlier work
[7] = system: human erythroid precursors; assay: Induction of production of fetal hemoglobin in vitro (two-phase liquid culture, HPLC); format: cell-based
From the text: Cells grown in phase II in the presence of the indicated concentrations of heme arginate, were harvested on day 13 and their hemoglobin quantitated.
Cells grown in phase II in the presence of the indicated concentrations of heme arginate, were harvested on day 13 and their hemoglobin chromatographed and quantitated.
Cells grown in phase II in the absence or presence of heme arginate from day 0 and with the indicated concentrations of hydroxyurea from day 5, were harvested on day 13 and their hemoglobin chromatographed and quantitated.
3. Induction of production of fetal hemoglobin in vitro
Peripheral blood mononuclear cells obtained from normal volunteers and either sickle cell anemia or β-thalassemia patients were isolated by centrifugation on a gradient of Ficoll-Hypaque and seeded at a density of 5×10^6 cells/ml in alpha-minimal essential medium supplemented with 10% fetal calf serum (FCS), 1 μg/ml cyclosporin A, and 10% conditioned medium collected from cultures of the 5637 bladder-carcinoma cell line. The cultures were incubated at +37° C. in an atmosphere of 5% CO2 in air with extra humidity.
Following 7-day incubation in this phase I culture, the non-adherent cells were harvested, washed, and recultured in fresh medium composed of alpha-medium, 30% FCS, 1% deionized bovine serum albumin, 1×10^-5 M β-mercaptoethanol, 1.5 mM glutamine, 1×10^-6 M dexamethasone, and 1 U/ml human recombinant erythropoietin. Hemoglobin containing cells were determined by using the benzidine-HCl procedure.
The effect of heme arginate on fetal hemoglobin (Hb-F) production was determined by growing human erythroid precursors in the second phase of the above described liquide cell culture in the presence of 1 U/ml erythropoietin and different concentrations of heme arginate. The combination effect of heme arginate and hydroxyurea was investigated with 100 μM heme arginate added on day 0 and various concentrations of hydroxyurea added on day 5. Cells were harvested on day 13 and lysed, and their total hemoglobin and Hb-F content was analyzed by cation-exchange HPLC.

[8] = rat, intravenous dose of 3 mg/kg; cited from earlier work
[9] = system: polychromatic erythrocytes; assay: Mouse micronucleus assay (micronucleated polychromatic erythrocytes in bone marrow smears); format: in vivo, mouse (CD-1 outbred, Swiss origin); conditions: for Incidence: number of micronucleated polychromatic erythrocytes per 1000 polychromatic erythrocytes examined: 36 mg/kg i.v.
From the text: 1. Mouse micronucleus assay
Micronuclei are seen in a variety of cells, but erythrocytes are chosen for examination since micronuclei are easily detected in this cell type.
A few hours after the last mitosis is completed, erythroblasts expel their nucleus. Young erythrocytes stain blue with Giemsa due to the presence of ribonucleic acid, which gradually disappears so that more mature erythrocytes stain pink with Giemsa. The young blue-staining cells are known as polychromatic erythrocytes and micronuclei are readily detected in this cell type.
The test animals were specific pathogen free CD-1 outbred mice of Swiss origin weighing between 22 and 24 grams and approximately 40 days old during the study. The mice were acclimatized for four days and after that dosed by intravenous injection with a volume of 10 ml/kg body weight either with saline solution (vehicle control) or with heme arginate solution at the dose 36 mg hemin/kg body weight. Five male and five female mice were sacrificed by cervical dislocation 24, 48, and 72 hours after dosing. A direct bone marrow smear was made from femur onto a slide containing a drop of calf serum. The smears were fixed in methanol, air dried, and stained for 10 minutes in 10% Giemsa solution. The stained smears were examined (under code) by light microscopy to determine the incidence of micronucleated cells per 1000 polychromatic erythrocytes per animal.

blasts in bone marrow = assay: Proportion of blasts in the bone marrow of myelodysplastic patients; format: in vivo, human; conditions: for Blasts in bone marrow, after / Myeloblasts in bone marrow, after / Sum of blasts and myeloblasts in bone marrow, after: one week after last of 15 infusions, 3 mg hemin/kg i.v.; for Myelodysplastic syndrome subtype, after: after treatment
Description: 2. Proportion of blasts in the bone marrow of myelodysplastic patients
In a clinical study patients with myelodysplastic syndromes were treated with intravenous infusions of heme arginate at the dose level 3 mg hemin/kg. The infusions were given first on four consecutive days and after that once a week for eleven weeks. Thus totally 15 infusions were given to each patient.
Bone marrow sample was collected from each patient before start of the heme arginate infusions and one week after the last infusion. Proportion of blasts and myeloblasts were determined in the bone marrow samples by using standard hematological laboratory procedures. The definition of "a blast" as used in the classification of myelodysplastic syndromes includes both blasts and myeloblasts (9).

[10] = of 26 patients, 2-3 mg hemin/kg
[11] = Table 3, one line per patient, baseline before treatment
[12] = Table 4, patients not considered good responders, one line per patient, baseline before treatment
[13] = Table 4, patients not considered good responders, one line per patient

## Hemin
[1]
  solubility: poorly soluble

## C=CC1=C(C)c2cc3[n-]c(cc4[n-]c(cc5nc(cc1n2)C(C)=C5C=C)c(C)c4CCC(=O)O)c(CCC(=O)O)c3C.O.[Fe+2] [hematin]
[2]; in vivo, iv
  adverse effects: often complicated by adverse effects, including phlebitis at the infusion site and disturbances in hemostasis

## heme arginate
[3]
  AUC: 998 µg/mL/h
[1]
  solubility: increases the aqueous solubility
[2]; intravenous use, incl. phlebitis at infusion site and disturbances in hemostasis
  adverse effects: lack of serious adverse effects
[2]; intravenous use, incl. phlebitis at infusion site and disturbances in hemostasis, listed as Heme arginate
  adverse effects: seldom produces these effects and therefore is better tolerated
Myelodysplastic syndrome [4]; of 14 patients (15)
  patients with MDS progression: 4/14
Myelodysplastic syndrome [4]; of 14 patients (15), considered to be an occasional event
  patients with decrease of blasts: 1/14
Myelodysplastic syndrome [4]; of 14 patients, 3 mg hemin/kg
  patients with long-lasting improvement in hemoglobin values and/or platelet counts: Three
Myelodysplastic syndrome [4]; single patients, 3 mg hemin/kg
  duration of long-lasting improvement in hemoglobin values and/or platelet counts: 5 months and 26 months and > 41 months
Plasma proteins
  plasma protein binding: quickly bound to the plasma proteins in monomeric form
Myelodysplastic syndrome [5]; of 26 patients (13)
  patients with MDS progression: 4/26
Myelodysplastic syndrome [5]; [10]
  patients showing improvement in cytopenias during the therapy: Six
  patients with long-lasting good response with normal or close to normal blood cell counts: three
Myelodysplastic syndrome [5]; single patients, 2-3 mg hemin/kg
  duration of long-lasting good response: > 11 months and > 12 months and 25 months
[6]
  effect on blood cell counts: clinically effective in part of MDS patients by increasing the blood cell counts
[7]; FIG. 1, phase II culture, harvested day 13, erythroid precursors from patients with hemoglobinopathies
  amount of total hemoglobin produced: increases the amount of total hemoglobin
[7]; FIG. 2, phase II culture, harvested day 13, heme arginate alone
  proportion of fetal hemoglobin (Hb-F): increases the proportion of fetal hemoglobin
[7]; FIG. 3, heme arginate 100 μM from day 0, hydroxyurea 25-200 μM from day 5, harvested day 13
  effect of heme arginate on proportion of fetal hemoglobin (Hb-F) in presence of hydroxyurea: potentiated by the presence of hydroxyurea
[8]
  AUC: 64 µg/mL/h
[9]; killed 24 hours after dosing, vehicle control 1.2
  Incidence: number of micronucleated polychromatic erythrocytes per 1000 polychromatic erythrocytes examined: 1.1 per 1000 polychromatic erythrocytes
[9]; killed 48 hours after dosing, vehicle control 1.0
  Incidence: number of micronucleated polychromatic erythrocytes per 1000 polychromatic erythrocytes examined: 0.5 per 1000 polychromatic erythrocytes
[9]; killed 72 hours after dosing, vehicle control 1.0
  Incidence: number of micronucleated polychromatic erythrocytes per 1000 polychromatic erythrocytes examined: 0.4 per 1000 polychromatic erythrocytes
[9]; in vivo, 36 mg/kg
  effect on incidence of mutagenesis (mouse micronucleus test): able to decrease incidence of mutagenesis
Blasts in bone marrow; Table 3, RAEB or RAEB-t patients, one line per patient, baseline before treatment
  Blasts in bone marrow, before: 4% and 3% and 6% and 15% and 10%
Blasts in bone marrow; Table 3, RAEB or RAEB-t patients, one line per patient
  Blasts in bone marrow, after: 0% and 1% and 4% and 6%
Blasts in bone marrow; Table 3, one line per patient
  Myelodysplastic syndrome subtype, after: RARS and RAEB
  Myeloblasts in bone marrow, after: 4% and 3%
Blasts in bone marrow; [11]
  Myeloblasts in bone marrow, before: 6% and 8% and 4% and 3% and 20%
  Myelodysplastic syndrome subtype, before: RAEB and RAEB-t
Blasts in bone marrow; Table 3 and text, one line per patient
  Sum of blasts and myeloblasts in bone marrow, after: 4% and 8% and 10%
Blasts in bone marrow; Table 3 patients, of 21
  patients with a clear decrease of blasts: 5/21
Blasts in bone marrow; Table 4, RARS or RAEB patients not considered good responders, one line per patient, baseline before treatment
  Blasts in bone marrow, before: 5 and 8 and 2 and 3 and 1 and 4 and 0
Blasts in bone marrow; Table 4, one line per patient
  Myelodysplastic syndrome subtype, after: RAEB and RARS
Blasts in bone marrow; Table 4, one line per patient, baseline before treatment
  Myelodysplastic syndrome subtype, before: RAEB and RARS
Blasts in bone marrow; [12]
  Myeloblasts in bone marrow, before: 4 and 2 and 8 and 9 and 3 and 10 and 5 and 1
  Sum of blasts and myeloblasts in bone marrow, before: 9 and 12 and 4 and 5 and 7 and 14 and 13 and 3 and 1 and 10
Blasts in bone marrow; [13]
  Blasts in bone marrow, after: 5 and 8 and 0 and 2 and 3 and 1 and 4
  Myeloblasts in bone marrow, after: 3 and 2 and 1 and 7 and 6 and 10 and 9 and 5 and 0
  Sum of blasts and myeloblasts in bone marrow, after: 8 and 11 and 2 and 3 and 7 and 13 and 4 and 12 and 6 and 1 and 9
Blasts in bone marrow; Table 4 patients, of 21
  patients with a smaller decrease of blasts: 12/21
  patients with no effect on blasts: 1/21
  patients with slight increase of blasts: 3/21
Blasts in bone marrow; all patients, of 21
  patients with some decrease of blasts, totally: 17/21
Blasts in bone marrow; some MDS patients
  effect on proportion of blasts in bone marrow: able to decrease proportion of blasts
